Results taken from patent publication US20230372395A1, “CAR CELLS TARGETING AN INSERTED LIGAND” (Massachusetts Institute of Technology, priority 2022, published 2023).

Tests used:
[1] = tested on: B16F10 murine melanoma cells; assay: Amph-FITC labeling of tumor cells in vitro, flow cytometry; assay type: cell-based; conditions: incubated 30 min at 37° C.
Procedure: (§1) Amph-FITC labeling and cytotoxicity studies: For in vitro labeling of tumor cells with amph-FITC, tumor cells were washed with 1×PBS and incubated at a cell density of 10^6 cells/mL for 30 minutes at 37° C. with DSPE-PEGx-FITC, where x=0, 1, 2, 3.4, 5, or 10 kDa (Creative PEGworks) in PBS. For cocultures, target cells were labeled simultaneously with 100 nM amph-FITC and CellTrace Violet (ThermoFisher); 20,000 target cells were seeded per well in a 96-well flat-bottom plate with CAR T cells at the indicated effector-to-target ratios. Following a 16 hr incubation, cells were stained with SYTOX red (ThermoFisher) for flow cytometry, and IFN-γ in the supernatant was quantified using a Mouse IFN gamma Uncoated ELISA Kit (Invitrogen).

[2] = tested on: MC38 murine colon carcinoma cells; assay: as above; assay type: cell-based; conditions: 100 nM, 30 min at 37° C.
Procedure: as §1

[3] = tested on: CT-2A glioblastoma cells; assay: as above; assay type: cell-based, murine; conditions: 100 nM, 30 min at 37° C.
Procedure: as §1

[4] = tested on: B16F10 tumors; assay: CAR T cell expansion and tumor homing by bioluminescence imaging; assay type: in vivo, C57BL/6 mice
Excerpt: (§2) C57BL/6 WT, CD45.1^+, Batf3 KO, and Rag1 KO mice (Jackson Laboratory, 6 to 8 weeks old) were inoculated with 10^6 B16F10, 10^6 MC38, 10^6 TC-1, or 3×10^6 CT-2A tumor cells subcutaneously at the flank. Once tumors grew to ˜25 mm^2 in area, mice underwent a non-myeloablative 5 Gy dose of TBI administered by a [^137Cs] gamma radiation source, 24 hr prior to adoptive transfer of 10^7 CD45.1+ CAR T cells IV via the tail vein. One day later, mice were vaccinated subcutaneously at the tail base with 10 nmol DSPE-PEG2k-FITC (Creative PEGworks) and 25 μg cyclic di-GMP (Invivogen), and vaccinated for 3 total doses, once weekly. Intratumoral injection of 10 nmol amph-FITC was administered beginning the day after the first vaccination, and continuing every 3 days.
(§3) For all studies, tumor progression was monitored by caliper measurements. Survival was evaluated over time until tumors exceeded 200 mm^2 in area, were severely ulcerated >1 week, or experienced >20% weight loss. To monitor trafficking of Fluc-expressing CAR T cells, mice were injected subcutaneously at the scruff with 150 mg/kg D-luciferin K^+ Salt (Perkin-Elmer) and imaged on a Xenogen IVIS Spectrum. Prior to imaging, C57BL/6 mice were depilated on their back to improve signal sensitivity.

[5] = tested on: CT-2A tumors; assay: T cell infiltration of treated tumors, immunohistochemistry; assay type: in vivo, C57BL/6 mice; conditions: day 12, i.t. amph-FITC ± amph-FITC vaccine
Excerpt: as §2

[6] = tested on: B16F10 tumors; assay: In vivo therapy study, tumor growth and survival; set-up: species or system C57BL/6 mice; conditions: addition of amph-FITC vaccine boosting to E2-28z CAR T cells + intratumoral amph-FITC
Excerpt: as §2, §3

[7] = tested on: CT-2A tumors; assay: In vivo therapy study, tumor growth and survival; set-up: species or system C57BL/6 mice; conditions: intratumoral once every 6 days instead of every 3 days
Excerpt: as §2, §3

[8] = Toxicity of amph-FITC and FITC CAR T therapy in tumor-bearing mice; assay type: in vivo, C57BL/6 mice
Excerpt: as §2, §3

[9] = tested on: B16F10 melanomas; assay: Bilateral flank tumors, i.t. amph-FITC only in the 1° lesion; assay type: in vivo, C57BL/6 mice
Excerpt: as §2, §3

[10] = tested on: CT-2A tumors; assay: as above; assay type: in vivo, C57BL/6 mice; conditions: FITC-CAR T cells, amph-FITC vaccination, i.t. amph-FITC right flank only
Excerpt: as §2, §3

[11] = tested on: MSTO-211H tumors; assay: Xenograft study with human CAR T cells and intratumoral amph-FITC; assay type: in vivo
Procedure: For xenograft studies, 6- to 12-week-old NOD.Cg-Prkdc^scidIL2rg^tm1Wj1/SzJ (NSG) mice (Jackson Laboratory) were inoculated with 3×10^6 MSTO-211H cells subcutaneously at the flank. Once tumors grew to ˜25 mm^2, mice were adoptively transferred with 10^7 CAR T cells IV via the tail vein. Intratumoral injection of 10 nmol amph-FITC was administered beginning the day after adoptive transfer, and continuing every 3 days.
as §3
For quantification of human CAR T cells in the peripheral blood, spleen, and tumor, tissues were processed as described above, then stained with LIVE/DEAD Aqua, BUV496 anti-CD4 (clone SK3/Leu3a, BD Biosciences), BUV805 anti-CD8α (clone SK1, BD Biosciences), PE anti-myc tag (clone 9B11, Cell Signaling), and APC-Cy7 anti-CD45 (clone 2D1, BioLegend).

[12] = tested on: B16F10 tumors
Procedure: For cellular localization studies, MC38 tumor-bearing mice were injected intratumorally with 10 nmol DSPE-PEG2k-FITC, and 24 hr later tumors were enzymatically digested at 37° C. for 30 min with 1 mg/mL collagenase D and 0.2 mg/mL DNase I in complete RPMI media before mechanical dissociation through a 70 μm cell strainer.

[13] = injection of only the primary tumor

1,2-distearoyl-sn-glycero-3-phosphoethanolamine-PEG-FITC [amph-FITC]
FITC exposed on the cell surfaces (anti-FITC antibody staining) [1]: exposed on the cell surfaces | association of amph-FITC with the cells (total FITC) [1]: dose-dependent association | association with and exposure on cell surfaces [2]: associate with and be exposed on the surfaces | association with and exposure on cell surfaces [3]: associate with and be exposed on the surfaces | impact on overall T cell expansion or accumulation at the tumor site ([4]; addition of the vaccine boost to intratumoral amph-FITC): did not have a significant impact | CAR T cell expansion (bioluminescence) ([4]; i.t. amph-FITC with E2-28z CAR T cells): triggered CAR T cell expansion | CAR T cell accumulation at the tumor site ([4]; intratumoral amph-FITC compared with amph-FITC vaccination alone): greater accumulation at the tumor site | T cell infiltration of treated tumors [5]: substantial T cell infiltration throughout the tumor | increase of median survival [6]: 3 days | therapeutic effect at reduced injection frequency [7]: did not reduce the therapeutic effect | body weight ([8]; CAR T cells with intratumoral amph-FITC and amph-FITC vaccination, versus untreated control): no weight loss | inflammation of the skin surrounding treated tumors ([8]; local i.t. administration during treatment): no obvious inflammation | growth of the treated primary tumor [9, 13]: slowed growth | progression of the untreated lesions [9, 13]: trend toward slowed progression | overall survival ([9]; over untreated animals): substantial increases in overall survival | overall survival [10]: substantially improved | progression of injected (1°) and non-injected (2°) tumors [10]: substantially slowed progression | graft vs. host disease ([11]; mouse, in vivo): exacerbated GVHD | relative expansion of CAR T cells induced by amph-FITC treatment ([11]; whole mouse radiance): 13.3 fold | cellular distribution of FITC labeling after lymphodepletion ([12]; 5 Gy TBI 24 hours prior to amph-FITC injection): favored labeling of cancer cells in an even greater proportion | proportion of each cell type bearing extracellularly exposed FITC ([12]; after 1 hour, cancer cells and host cells): 40-60% | proportion of cells still bearing exposed FITC ([12]; at 24 hours): 20-40% | cell type numerically dominant among cells surface-decorated with FITC ([12]; by 24 hours): majority of cells surface-decorated with FITC were the cancer cells
